# Reference: US7799565B2, “Lipid encapsulated interfering RNA” (Protiva Biotherapeutics, Inc., priority 2004, dated 2010)
# Key:
# luciferase = test: In vitro silencing of luciferase in stably transfected Neuro2A cells; assay type: cell-based; conditions: 48 hours; for luciferase expression relative to untreated control: cationic lipid incorporated in SNALP with anti-luciferase siRNA
# Method: In vitro Transfection: Cells were cultured in MEM (Invitrogen) containing 10% fetal bovine serum (FBS) (CanSera) and 0.25 mg/mL G418 (Invitrogen). Neuro2A-G cells (Neuro2A cells stably transfected to express luciferase [R. E. Kingston. in Current Protocols in Molecular Biology, Vol. 2, pp. 9.1.4-9.1.9, John Wiley & Sons, Inc. (1997)]) were plated at a concentration of 4×10^4 cells per well in 24-well plates and grown overnight. Cells were treated with SNALP at doses of 0.0625-1.0 μg/mL nucleic acid (AntiLuc Active or Mismatch Control) and incubated for 48 hours at 37° C. and 5% CO2. Cells were then washed with PBS and lysed with 200 μL 250 mM sodium phosphate containing 0.1% Triton X-100. The luciferase activity for each well was determined using Luciferase Reagent (Promega) and a standard luciferase protein (Roche). The luminescence for each was measured using a Berthold MicroLumatPlus LB96V plate luminometer. The resulting luciferase activity was then normalized for the amount of protein using the Micro BCA assay kit (Pierce). Luciferase knockdown relative to a control was then determined for each system.
# This example describes experiments comparing expression of nucleic acids following in vitro transfection of Neuro2A cells with SNALP comprising: (1) DODAC, DODMA, or DLinDMA; (2) PEG-C-DMA; and (3) an siRNA duplex directed against luciferase encapsulated in the SNALP (i.e., siRNA comprising the following sequence: […] and targeting the DNA sequence complementary to: […]). Neuro2A cells were stably transfected with a plasmid encoding luciferase under the control of the CMV promoter (pLO55). The stably transfected cells were then transfected with SNALP comprising: 15, 20, 25, 30, 35, or 40% of DODAC, DODMA, or DLinDMA; 2% PEG-C-DMA, and an siRNA duplex directed against luciferase encapsulated in the SNALP. Luciferase protein expression was measured 48 hours after transfection with SNALP.
# The ability of SNALP containing each of the four cationic lipids (i.e., DSDMA, DODMA, DLinDMA, and DLenDMA) to effect gene silencing in stably transfected Neuro2A cells was evaluated. Neuro2A cells stably transfected to express the luciferase were treated with SNALP containing anti-luciferase siRNA for 48 hours. Gene-silencing efficiency was evaluated by comparing the remaining luciferase activity in these cells to that remaining in cells treated with control SNALP containing mismatch siRNA.
# [1] = 31P-NMR phase transition of cationic lipid / DPPS vesicles; assay type: physicochemical; conditions: series DSDMA, DODMA, DLinDMA, DLenDMA
# Method: ^31P Nuclear Magnetic Resonance Spectroscopy: Multilamellar vesicles (MLV) were prepared comprising DPPS and cationic lipid at a molar ratio of 1:1. This was accomplished by drying the lipids from chloroform solution, transferring to 10 mm NMR tubes, and hydrating in 1.5 mL of 10 mM sodium citrate, pH 4. Free induction decays (FIDs) corresponding to 1000 scans were obtained with a 3.0 μs, 60 o pulse with a 1 s interpulse delay and a spectral width of 25000 Hz. A gated two-level proton decoupling was used to ensure sufficient decoupling with minimum sample heating. An exponential multiplication corresponding to 50 Hz of line broadening was applied to the FIDs prior to Fourier transformation. The sample temperature (+/−1° C.) was regulated using a Bruker B-VT1000 variable temperature unit. Chemical shifts were referenced to 85% phosphoric acid as an external standard.
# [2] = SNALP with anti-luciferase siRNA, versus control SNALP containing mismatch siRNA
Structure (SMILES),gene-silencing activity (luciferase; [2]),luciferase expression relative to untreated control (luciferase),phase transition temperature [1],knockdown in gene expression (luciferase; [2])
"CC/C=C\C/C=C\C/C=C\CCCCCCCCOCC(CN(C)C)OCCCCCCCC/C=C\C/C=C\C/C=C\CC (stereo not shown) [DLenDMA, 1,2-Dilinolenyloxy-N,N-dimethylaminopropane]",slightly less efficient than those containing DLinDMA,32%,–,–
"CCCCC/C=C\C/C=C\CCCCCCCCOCC(CN(C)C)OCCCCCCCC/C=C\C/C=C\CCCCC (stereo not shown) [DLinDMA, 1,2-DiLinoleyloxy-N,N-dimethylaminopropane]",–,21%,lowest phase transition temperature in the series,80%
"CCCCCCCCCCCCCCCCCC[N+](C)(C)CCCCCCCCCCCCCCCCCC [DODMA, dioctadecyldimethylammonium, reference compound]",–,54%,–,–
"CCCCCCCCCCCCCCCCCC[N+](C)(C)CCCCCCCCCCCCCCCCCC [DSDMA, Distearyldimethylammonium, reference compound]",no activity,–,–,–
